Among the data in ChEMBL document CHEMBL1137292, “Synthesis and activity of a folate peptide camptothecin prodrug” (Bioorg Med Chem Lett, 2006) are IC50 and relative binding affinity (RBA) values, retold here.

The test system of assay [1] is KB. In words: Antiproliferative activity against human KB cells expressing FR in presence of folic acid after 72 hrs by [3H]thymidine incorporation assay. It is filed as functional, cell-based.
Assay [2] has as its target Folate receptor alpha (Homo sapiens) (UniProt P15328). Put plainly: Displacement of [3H]folic acid from human folate receptor expressed in KB cells relative to folic acid. It is filed as cell-based. In general terms: In a radioligand displacement assay an active substance lowers the binding of a labelled ligand.

Starred links: 1 amine or outer side, 2 acyl side, 3 side chain; linkers in the order of their positions; H or OH if unused. Residues, ends and D or L forms follow the SMILES beside them. *: point of attachment. S(CH2)2OCO2(CPT-20-yl) = CC[C@@]1(OC(=O)OCCS*)C(=O)OCc2c1cc1n(c2=O)Cc2cc3ccccc3nc2-1; Pteroyl = Nc1nc2ncc(CNc3ccc(C(=O)*)cc3)nc2c(=O)[nH]1; γGlu = O=C(O)[C@H](CCC(=O)[*:2])N[*:1]

Sequence of Folate receptor alpha (Homo sapiens) (P15328 25-234 limits assumed): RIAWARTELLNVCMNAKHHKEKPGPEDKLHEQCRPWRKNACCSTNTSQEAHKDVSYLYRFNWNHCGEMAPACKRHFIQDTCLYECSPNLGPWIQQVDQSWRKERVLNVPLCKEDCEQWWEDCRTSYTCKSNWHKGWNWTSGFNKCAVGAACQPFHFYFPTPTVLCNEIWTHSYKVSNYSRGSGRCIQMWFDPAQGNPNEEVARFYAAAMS

As a reminder, the IC50 is the concentration needed to halve the response being measured. Regarding `CC[C@@]1(OC(=O)OCCSSC[C@H](NC(=O)[C@H](CC(=O)O)NC(=O)[C@H](CC(=O)O)NC(=O)[C@H](CCCNC(=N)N)NC(=O)[C@H](CC(=O)O)NC(=O)CC[C@H](NC(=O)c2ccc(NCc3cnc4nc(N)[nH]c(=O)c4n3)cc2)C(=O)O)C(=O)O)C(=O)OCc2c1cc1n(c2=O)Cc2cc3ccccc3nc2-1` ({Pteroyl-γGlu}-DRDDC(S(CH2)2OCO2(CPT-20-yl))-OH), in assay [1], the IC50 turned out to be 0.01 µM. This molecule displayed a relative binding affinity (RBA) in assay [2] of 0.44.
